According to patent US5081234A, “4'-demethylepipodophyllotoxin glycosides” (Bristol-Myers Squibb Co., priority 1990, dated 1992):
In brackets after ≈: the same amount, converted by molar mass.

Tests used:
[1] = tested on: Murine melanoma B16-F10 cells; experiment: In vitro cytotoxicity vs B16-F10 (72 h, neutral red staining); type: cell-based; conditions: Mus musculus, neutral red at 540 nm
Protocol: Murine melanoma B16-F10 cells were grown and maintained at 37° C. under a humidified atmosphere in a 5% CO2 incubator in Eagle's MEM medium (Nissui) containing kanamycin (60 μg/ml), and supplemented with heat inactivated fetal calf serum (10%) and non-essential amino acids (0.6%). For in vitro cytotoxicity experiments, exponentially growing B16-F10 cells were harvested, counted, and suspended in the culture medium at the concentration of 2.0×10^4 cells/ml. Twenty-four hours after planting cell suspension (180 μl ) into wells of a 96-well microtiter plate, test materials (20 μl) were added to the wells and the plates were incubated for 72 hours. The cytotoxic activity against B16-F10 cells was colorimetrically determined at 540 nm after staining viable cells with neutral red solution.

[2] = tested on: murine P388 lymphocytic leukemia; experiment: In vivo antitumor activity against murine P388 lymphocytic leukemia; set-up: species or system mice (female CDF1); conditions: median survival time treated/control; P388 i.p. day 0, i.p. once on day 1 (Q1D×1), observed 45 days; maximum T/C, at dose (mg/kg): D 30, E 120, F 60, G 120, H 30, I 10, K 10, Etoposide 120; >125% considered significant
Protocol: Representative compounds of the present invention were evaluated against murine P388 lymphocytic leukemia. Female CDF1 mice were inoculated with 1.0×10^6 of leukemia cells intraperitoneally (day 0), and test materials were intraperitoneally administered to mice once on day 1 (Q1D×1). […] The median survival time (MST) of each group was recorded, and antitumor activity was expressed as T/C % values calculated by the following equation:
T/C%=(MST of treated.div.MST of control)×100

Structure (SMILES)	IC50 [1]	Antitumor Activity vs P388, Max % T/C [2]
COc1cc([C@@H]2c3cc4c(cc3[C@@H](O[C@@H]3O[C@@H]5CO[C@@H](C)O[C@H]5[C@H](O)[C@H]3O)[C@H]3COC(=O)[C@H]23)OCO4)cc(OC)c1O [Etoposide, reference compound]	0.21 µg/mL (≈ 0.357 µM)	–
COc1cc([C@@H]2c3cc4c(cc3[C@@H](O[C@@H]3OC[C@@H](OC(C)=O)[C@@H](OC(C)=O)[C@H]3OC(C)=O)[C@H]3COC(=O)[C@H]23)OCO4)cc(OC)c1O [Compound E, 4'-Demethyl-4-O-(2,3,4-tri-O-acetyl-β-D-ribopyranosyl)epipodophyllotoxin]	4 µg/mL (≈ 6.07 µM)	171%
COc1cc([C@@H]2c3cc4c(cc3[C@@H](O[C@@H]3O[C@H](CO)[C@@H](O)[C@H]3O)[C@H]3COC(=O)[C@H]23)OCO4)cc(OC)c1O [Compound D, 4'-Demethyl-4-O-(β-D-ribofuranosyl)epipodophyllotoxin]	18 µg/mL (≈ 33.8 µM)	130%
COc1cc([C@@H]2c3cc4c(cc3[C@@H](O[C@@H]3OC[C@@H](O)[C@@H](O)[C@H]3O)[C@H]3COC(=O)[C@H]23)OCO4)cc(OC)c1O [Compound F, 4'-Demethyl-4-O-(β-D-ribopyranosyl)epipodophyllotoxin]	1 µg/mL (≈ 1.88 µM)	181%
COc1cc([C@@H]2c3cc4c(cc3[C@@H](O[C@H]3OC[C@@H](O)[C@@H](O)[C@@H]3O)[C@H]3COC(=O)[C@H]23)OCO4)cc(OC)c1O [Compound K, 4'-Demethyl-4-O-(α-D-arabinopyranosyl)epipodophyllotoxin]	28 µg/mL (≈ 52.6 µM)	125%
COc1cc([C@@H]2c3cc4c(cc3[C@@H](O[C@@H]3OC[C@H]5OC(C)O[C@H]5[C@H]3O)[C@H]3COC(=O)[C@H]23)OCO4)cc(OC)c1O (stereo partly drawn) [Compound G, 4'-Demethyl-4-O-(3,4-O-ethylidene-β-D-ribopyranosyl)epipodophyllotoxin]	2.5 µg/mL (≈ 4.48 µM)	152%
COc1cc([C@@H]2c3cc4c(cc3[C@@H](O[C@H]3OC[C@@H](O)[C@H](O)[C@H]3O)[C@H]3COC(=O)[C@H]23)OCO4)cc(OC)c1O [Compound I, 4'-Demethyl-4-O-(α-D-xylopyranosyl)epipodophyllotoxin]	2.3 µg/mL (≈ 4.32 µM)	140%
COc1cc([C@@H]2c3cc4c(cc3[C@@H](O[C@@H]3OC[C@@H](O)[C@H](O)[C@H]3O)[C@H]3COC(=O)[C@H]23)OCO4)cc(OC)c1O [Compound H, 4'-Demethyl-4-O-(β-D-xylopyranosyl)epipodophyllotoxin]	0.53 µg/mL (≈ 0.995 µM)	150%
